Measurements taken from US10702465B2, “Oral care formulation and method for the removal of tartar and plaque from teeth” (priority 2015, dated 2020).
“Also recorded” adds a separate entry of the source.

What was measured:
[1] = Centrifuge studies of colloidal fragmentation of tartar; type: in vivo, human; details: each agent alone
Excerpt: Together DMI and chlorine dioxide fragment the insoluble glucan and polypeptide matrix which hold tartar together. […] Not to be held to any specific mechanism of action, it would appear that the primary role of chlorine dioxide is to break polypeptide linkages and protein polyol linkages. But this ability alone is insufficient for tartar fragmentation. The insoluble glucan matrix also appears to provide much of the needed glue to keep the tartar intact. Dimethyl isosorbide appears to enter the cracks within the insoluble glucan structure and splay out the glucan structure which in turn promotes the entry of water to re-hydrate the normally insoluble glucan and destabilize and glucan/biofilm matrix and fragment the tartar structure. Evidence for this rehydration and fragmentation mechanism is provided in the following two studies.
In the first study the subject's teeth were flossed with Reach floss, then flossed with a Waterpik water flosser. After the water flossing the water was removed from the mouth. 3 ml of distilled water was added to the mouth and the teeth were brushed with only water for 2 minutes. After the 2 minutes brushing cycle, the water was expelled into a funnel into a centrifuge tube. The subject's teeth were again flossed with a water flosser and then procedure “A” was followed three more times for a total of four 2 minute brushing cycles. […]

[2] = Tartar removal trials by flossing and brushing, intraoral photographs (Example 5); type: in vivo, human; details: with chlorine dioxide
Excerpt: All photographs in this example were taken by a professional oral hygienist using a Schick intraoral digital camera.
In other unsuccessful trials dimethyl isosorbide was mixed with numerous common tartar reducing toothpastes. The following picture is typical the failed result of six months of flossing with Reach® waxed floss and brushing twice per day with these various tartar reducing toothpastes with a Philips Sonicare® toothbrush for two minutes. The DMI concentration in each case was 7.1% (w).
The white spots present in FIGS. 15 and 17 are from enamel erosion from previous years of heavy tartar presence and attack of the enamel by bacteria.
In a separate study, 5% (w) DMI was mixed with 0.0094% (w) chlorine dioxide in of water [94.5% (w)]. After flossing the DMI-chlorine dioxide-water mixture was transferred to the mouth of the subject and the subject brushed the teeth for 2 minutes with Philips Sonicare®. After 6 weeks of flossing and brushing twice per day with the DMI-chlorine dioxide-water mixture, the photograph of FIG. 16 was taken.
After the picture of FIG. 16 was taken the trial formulation was changed from 5% (w) to 15% DMI 0.0085% (w) chlorine dioxide in water [84.9% (w)]. This new formulation was used for 8 weeks with the same flossing and brushing regimen used in the first 6 weeks. […]

[3] = 24 hour period, 100% and 50% aqueous concentrations; cited from earlier work
[4] = background statement; cited from earlier work
Streptococcus mutans = details: high concentrations; cited from earlier work
[5] = Tolerability of chlorine dioxide concentrations in use

Row | Structure (SMILES) | ability to fragment the tartar matrix ([1]; listed as DMI) | removal of preexisting tartar ([2]; DMI levels above 10% (w)) | level of DMI at which no tartar is reported ([2]; light tartar producers) | dissolution of collected dental tartar [3] | removal of tartar from teeth [4] | antibacterial properties (Streptococcus mutans) | ability to fragment the tartar matrix [1] | problems in use ([5]; chlorine dioxide at 0.01%) | problems in use ([5]; increased concentrations of chlorine dioxide (above 0.01%))
1 | CO[C@H]1CO[C@H]2[C@@H]1OC[C@H]2OC [DMIS, dimethylisosorbide] | Neither chlorine dioxide nor DMI by themselves show the ability to fragment the tartar matrix; also recorded: Neither chlorine dioxide nor DMI alone show the ability to fragment this matrix; also recorded: insufficient to allow DMI alone to rehydrate and fragment the tartar matrix | removed fairly rapidly | around 5% (w) or 8% (w) | slowly dissolved | not effective at removing tartar from subjects' teeth in vivo | weak antibacterial at high concentrations |  |  | 
2 | [O][Cl+][O-] [chlorine dioxide] |  |  |  |  | ineffective in removing tartar |  | Neither chlorine dioxide nor DMI by themselves show the ability to fragment the tartar matrix; also recorded: Neither chlorine dioxide nor DMI alone show the ability to fragment this matrix | no reported problems | no problems
